{
  "source": "patent US20110262407A1",
  "about": "“TREATMENT WITH ALPHA7 SELECTIVE LIGANDS” (Targacept, Inc., priority 2008, published 2011)",
  "key": {"[1]": {"test_system": "hippocampal progenitor cells", "conditions": "for magnitude of increase in proliferation of hippocampal progenitor cells: oral gavage, vs vehicle; for proliferation of progenitor cells in the hippocampus: 129SvEv mice", "description": "Since new neurons develop from the progenitor cells in the hippocampus, measuring the proliferation of this cell population may be used as an indicator of the full neurogenesis process. Hippocampal neurogenesis can be evaluated by measuring the incorporation of deuterium from heavy water into the DNA of progenitor cells and the rate of label incorporation reflects the rate of cellular proliferation. Fluoxetine, a known neurogenic antidepressant, was used as the positive control and as a comparator to the nicotinic ligands.\nMice were labeled for the last 10-11 days of the drug treatment period. Tissue processing and analysis: At the end of treatment and label, mice were sacrificed, the hippocampus was dissected from the brain and digested with papain and progenitor cells were isolated by Percoll fractionation. DNA was purified from the isolated progenitor cells using a DNEasy tissue kit (Qiagen, Valencia, Calif.), then processed and analyzed by GC/MS. DNA was enzymatically hydrolyzed to free deoxyribonucleosides, and the deoxyribose moiety of purine deoxyribonucleosides was converted to the pentafluorobenzyl triacetate derivative. […] Incorporation of ^2H into purine deoxyribose was quantified as the molar excess fraction M1 (EM1), i.e. the increase over natural abundance (background), determined from the fractional M1 value in unlabeled DNA standards from calf thymus.\nConcurrent analysis of DNA from bone marrow cells, which are fully turned over in 1 week provides an internal reference factor in each animal to correct for variations in body water ^2H enrichment. The fraction of newly divided progenitor cells was calculated as the ratio of EM1 in purine deoxyribose from progenitor cell DNA to the corresponding EM1 from enrichment in bone marrow DNA."}, "microglia": {"test_system": "microglia", "conditions": "mice", "excerpt": "The proliferation of microglial cells is an early event in the activation process in animal models of neuroinflammation. Microglial activation is thought to contribute to the pathology of many CNS neuro-inflammatory and neurodegenerative disorders."}, "GP8.3 cells": {"test_system": "GP8.3 cells", "test": "ionizing radiation damage to rat brain vasculature endothelial cells", "type": "cell-based", "protocol": "Cells were cultured in α-MEM/Ham's F10, 10% FBS, 50 IU/mL penicillin, 50 μg/mL streptomycin, […] L-glutamine, and 250 μg/mL Geneticin and maintained in a humidified atmosphere containing 5% CO2 at 37° C. Intracellular reactive oxygen species (ROS) generation was measured in GP8.3 cells using 2′7′ dichlorodihydrofluorescein diacetate (DCFH-DA). Cells were incubated with 20 μM DCFH-DA in phosphate buffered saline (PBS) for 30 min prior to irradiation. The fluorescence intensity was measured at excitation wavelength 485 nm and emission wavelength 530 nm using a Bio-Tek FL500 microplate fluorescence reader. Western blot analysis: GP8.3 cells were collected following treatment and protein was separated by polyacrylamide gel electrophoresis (PAGE) on a 12% gel. Primary goat anti-ICAM-1 and mouse anti-β-actin were used. The secondary antibody was horse radish peroxidase (HRP)-conjugated secondary antibodies. Northern blot analysis: Total RNA was isolated using Tri-ZOL reagent. cDNA probes were labeled with α32P-dCTP by the random primer extension method. The cDNA of rat ICAM-1 was synthesized. Cell viability was determined using a modified 3-(4,5-Dimethylthiazol-2-yl)-2,5-Diphenyltetrazolium Bromide (MTT) assay. Briefly, 5,000 cells/well were plated in 24-well plates and incubated overnight. […] At the end of the follow-up period, cells were incubated with MTT in PBS for 4 h. Cell lysis detergent (20% SDS and 50% dimethylformamide, pH 4.7, in PBS) was then added and the plates incubated overnight at 37° C. A 100 μl aliquot of the soluble fraction was then transferred to 96-well microplates, and the absorbance at 570 nm measured using an Enzyme-Linked ImmunoSorbent Assay (ELISA) plate reader."}, "[2]": {"test_system": "other nicotinic receptors, including alpha4beta2", "test": "binding affinity for other nicotinic receptors ([3H]-nicotine binding)"}, "alpha7 nAChR": {"target": "T1, alpha7 nAChR (Rattus norvegicus, UniProt Q05941)", "T1 construct": "displacement studies using ^3H-MLA in rat hippocampal tissues; from tissue; host or cells: rat hippocampus", "T1 sequence (Q05941 23-502)": "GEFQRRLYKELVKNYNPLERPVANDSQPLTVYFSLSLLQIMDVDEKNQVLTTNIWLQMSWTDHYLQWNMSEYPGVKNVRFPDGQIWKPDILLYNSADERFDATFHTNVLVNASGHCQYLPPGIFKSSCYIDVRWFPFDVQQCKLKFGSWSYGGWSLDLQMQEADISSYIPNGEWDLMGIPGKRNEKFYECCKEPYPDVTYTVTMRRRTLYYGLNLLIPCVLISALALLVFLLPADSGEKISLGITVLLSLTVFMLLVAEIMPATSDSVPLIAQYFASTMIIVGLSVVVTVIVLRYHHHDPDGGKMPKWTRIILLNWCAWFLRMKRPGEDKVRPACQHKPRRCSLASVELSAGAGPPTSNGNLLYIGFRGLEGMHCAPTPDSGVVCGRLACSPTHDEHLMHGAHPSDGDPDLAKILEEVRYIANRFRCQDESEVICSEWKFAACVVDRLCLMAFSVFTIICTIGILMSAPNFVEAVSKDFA", "test": "displacement studies using 3H-MLA in rat hippocampal tissues", "type": "binding"}, "alpha4beta2": {"target": "alpha4beta2 (Homo sapiens, UniProt P17787+P43681)", "sequence (P43681 29-627 limits assumed)": "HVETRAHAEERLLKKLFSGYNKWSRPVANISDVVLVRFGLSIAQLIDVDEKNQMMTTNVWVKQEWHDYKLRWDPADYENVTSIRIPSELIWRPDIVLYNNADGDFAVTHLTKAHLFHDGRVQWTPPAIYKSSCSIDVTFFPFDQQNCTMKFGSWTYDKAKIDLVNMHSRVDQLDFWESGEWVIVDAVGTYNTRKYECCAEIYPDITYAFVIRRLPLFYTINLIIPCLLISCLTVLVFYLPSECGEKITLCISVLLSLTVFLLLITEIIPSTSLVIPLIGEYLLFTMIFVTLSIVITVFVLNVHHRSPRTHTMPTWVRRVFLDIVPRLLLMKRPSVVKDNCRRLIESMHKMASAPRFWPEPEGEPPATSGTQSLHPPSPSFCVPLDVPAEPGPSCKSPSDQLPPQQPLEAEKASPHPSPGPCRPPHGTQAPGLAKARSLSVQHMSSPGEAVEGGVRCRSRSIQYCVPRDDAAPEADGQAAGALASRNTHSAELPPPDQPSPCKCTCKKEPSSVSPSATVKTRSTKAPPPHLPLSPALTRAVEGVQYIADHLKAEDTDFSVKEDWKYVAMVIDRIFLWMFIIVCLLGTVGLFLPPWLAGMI", "sequence (P17787 26-502)": "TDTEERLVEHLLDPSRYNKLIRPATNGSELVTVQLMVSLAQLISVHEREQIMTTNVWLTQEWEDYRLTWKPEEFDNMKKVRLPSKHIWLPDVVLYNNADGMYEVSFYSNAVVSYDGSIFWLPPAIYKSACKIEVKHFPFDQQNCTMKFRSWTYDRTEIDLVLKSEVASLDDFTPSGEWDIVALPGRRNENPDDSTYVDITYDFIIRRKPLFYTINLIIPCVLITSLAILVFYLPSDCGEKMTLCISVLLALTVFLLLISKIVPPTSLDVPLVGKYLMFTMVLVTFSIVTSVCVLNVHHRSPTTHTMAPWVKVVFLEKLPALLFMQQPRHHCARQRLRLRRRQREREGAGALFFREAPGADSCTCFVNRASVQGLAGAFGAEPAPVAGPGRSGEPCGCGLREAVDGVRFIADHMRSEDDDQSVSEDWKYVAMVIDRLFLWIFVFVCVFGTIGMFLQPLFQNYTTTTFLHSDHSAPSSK", "test": "functional agonism at alpha4beta2", "excerpt": "[…]. […] […]"}, "PC12 cells": {"test_system": "PC12 cells", "test": "neuroprotection against Abeta(1-42) in PC12 cells", "type": "cell-based, rat", "excerpt": "It has been shown that nicotine-induced complex formation between the alpha7 nicotinic acetylcholine receptor (nAChR) and the tyrosine-phosphorylated enzyme Janus kinase 2 (JAK2) results in subsequent activation of phosphatidylinositol-3-kinase (PI-3-K) and Akt. Nicotine interaction with the alpha7 nAChR inhibits Aβ (1-42) interaction with the same receptor, and Aβ (1-42)-induced apoptosis is prevented through nicotine-induced activation of JAK2. These effects can be shown by measuring markers of cytotoxicity, including the cleavage of the nuclear protein poly(ADP-ribose) polymerase (PARP), the induction of caspase 3, or cell viability.\nPC12, rat pheochromocytoma cells, were maintained in proliferative growth phase in Dulbecco's modified Eagle's medium supplemented with 10% horse serum, 5% fetal calf serum, and antibiotics (penicillin/streptomycin). Apoptosis was determined by assessing the cleavage of the DNA-repairing enzyme PARP using a Western blot assay. […] Caspase 3 enzyme activity was determined with a fluorogenic substrate for caspase-3 in crude PC12 cell extracts. […] The substrate emits a blue fluorescence when excited at a wavelength of 360 nm. When cleaved from the peptide by the caspase 3 enzyme activity in the cell lysate, free 7-amino-4-methyl Coumarin is released and can be detected by its yellow/green emission at 460 nm. […]"}, "[3]": {"target": "T2, human alpha7 nicotinic receptors (Homo sapiens, UniProt P36544)", "T2 construct": "expressed in transfected cells; host or cells: Xenopus laevis oocytes (transient expression)", "T2 sequence (P36544 23-502)": "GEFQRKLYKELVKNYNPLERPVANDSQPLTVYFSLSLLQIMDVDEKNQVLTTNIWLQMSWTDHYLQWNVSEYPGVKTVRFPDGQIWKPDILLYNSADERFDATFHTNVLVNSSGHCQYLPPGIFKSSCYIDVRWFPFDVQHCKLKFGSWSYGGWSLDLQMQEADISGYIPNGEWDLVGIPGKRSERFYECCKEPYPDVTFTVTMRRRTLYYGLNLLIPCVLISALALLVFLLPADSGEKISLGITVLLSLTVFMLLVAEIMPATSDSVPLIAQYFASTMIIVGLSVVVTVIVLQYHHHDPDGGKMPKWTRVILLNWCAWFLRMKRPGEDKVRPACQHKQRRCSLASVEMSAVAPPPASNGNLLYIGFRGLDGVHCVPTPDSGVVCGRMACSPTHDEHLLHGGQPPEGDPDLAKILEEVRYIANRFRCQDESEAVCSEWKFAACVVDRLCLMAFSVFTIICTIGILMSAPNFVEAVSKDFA", "test": "electrophysiology functional assay in Xenopus laevis oocytes", "type": "cell-based"}},
  "note": "Read-outs that look alike come from different tables or passages of the source.",
  "data": [
    {"compound": "Cc1ccc(C(=O)N[C@@H]2C3CCN(CC3)[C@H]2Cc2cccnc2)s1", "note": "[Compound A, 5-methyl-N-[(2S,3R)-2-(pyridin-3-ylmethyl)-1-azabicyclo[2.2.2]oct-3-yl]thiophene-2-carboxamide]", "values": [
      {"measurement": "magnitude of increase in proliferation of hippocampal progenitor cells", "setting": "[1]; 0.1 mg/kg, 3 weeks", "result": 36, "unit": "%"},
      {"measurement": "magnitude of increase in proliferation of hippocampal progenitor cells", "setting": "[1]; 0.3 mg/kg, 3 weeks", "result": 24, "unit": "%"},
      {"measurement": "magnitude of increase in proliferation of hippocampal progenitor cells", "setting": "[1]; 1 mg/kg, 3 weeks", "result": 30, "unit": "%"},
      {"measurement": "proliferation of progenitor cells in the hippocampus", "setting": "[1]; repeat administration 0.1-1 mg/kg/day p.o.", "result": "increase the proliferation of progenitor cells"},
      {"measurement": "LPS-induced neuroinflammation (microglial proliferation)", "setting": "microglia; 1 mg/kg p.o.", "result": "decreased LPS-induced neuroinflammation"},
      {"measurement": "radiation-induced up-regulation of ICAM1 mRNA and protein", "setting": "GP8.3 cells; pre-incubation (10 μM per FIG. 7)", "result": "ameliorated"},
      {"measurement": "radiation-induced up-regulation of ROS", "setting": "GP8.3 cells; pre-incubation (10 μM per FIG. 8)", "result": "abolished"},
      {"measurement": "radiation-induced up-regulation of IL-6 mRNA and protein", "setting": "GP8.3 cells; pre-incubation with 10 μM", "result": "abolished"}
    ]},
    {"compound": "c1cncc(C2CCC3CCN2CC3)c1", "note": "(centres unmarked) [Compound B, 2-(3-pyridinyl)-1-azabicyclo[3.2.2]nonane]", "values": [
      {"measurement": "binding to alpha4beta2", "setting": "[2]", "result": "binds to alpha4beta2"},
      {"measurement": "Ki", "setting": "alpha7 nAChR", "result": "1 to 2", "unit": "nM"},
      {"measurement": "functional agonism at alpha4beta2", "setting": "alpha4beta2", "result": "not functionally agonistic"},
      {"measurement": "cell survival in PC-12 cells exposed to lethal amounts of Abeta(1-42)", "setting": "PC12 cells; FIG. 10", "result": "neuroprotective"},
      {"measurement": "neuroprotection against Aβ (1-42) via JAK2/PI-3K cascade (PARP cleavage)", "setting": "PC12 cells; PC12 cells", "result": "exerts neuroprotective effects"},
      {"measurement": "Emax", "setting": "[3]", "result": "> 50", "unit": "%"}
    ]},
    {"compound": "CN1CCCC1c1cccnc1", "note": "(centres unmarked) [Compound C, nicotine, reference compound]", "values": [
      {"measurement": "proliferation of progenitor cells in the hippocampus", "setting": "[1]; repeat administration 1 mg/kg/day p.o.", "result": "increase the proliferation of progenitor cells"},
      {"measurement": "LPS-induced neuroinflammation (microglial proliferation)", "setting": "microglia; 0.1 mg/kg p.o.", "result": "decreased LPS-induced neuroinflammation"},
      {"measurement": "binding to alpha4beta2", "setting": "[2]", "result": "high affinity"},
      {"measurement": "affinity for alpha7 nAChR", "setting": "alpha7 nAChR; displacement of [3H]-MLA", "result": "high affinity"}
    ]},
    {"compound": "CNCCC(Oc1ccc(C(F)(F)F)cc1)c1ccccc1", "note": "(centres unmarked) [fluoxetine, Fluoxetine, reference compound]", "values": [
      {"measurement": "increase in proliferation of hippocampal progenitor cells", "setting": "[1]; 10 mg/kg po, 3 weeks, positive control", "result": 35, "unit": "%"}
    ]},
    {"compound": "CNC1(C)C2CCC(C2)C1(C)C", "note": "(centres unmarked) [mecamylamine, reference compound]", "values": [
      {"measurement": "effect on the Compound A-induced changes (IL-6, ICAM-1, ROS)", "setting": "GP8.3 cells; antagonist with Compound A", "result": "reversed"}
    ]}
  ]
}
